These results are taken from paper PMC10799085, “A miniaturized mode-of-action profiling platform enables high throughput characterization of the molecular and cellular dynamics of EZH2 inhibition” (Scientific Reports, 2024).

SMILES strings stand for the structures. Like-named read-outs stand apart in the source and are kept apart here.

For data set [1], the system named is KARPAS-422 cells. The experiment in a line: Cellular proliferation assay (AlamarBlue, 144 h). Format: cell-based. The note with it: KARPAS-422 cells, 6-day (144 h), AlamarBlue; read-out: KARPAS (6-day) Anti-proliferation IC50. The procedure:
Cell viability was determined by means of the AlamarBlue® reagent (Thermo Fisher Scientific) following instructions from the manufacturer. […] Anti-proliferative IC50s were calculated by fitting the normalized AlamarBlue® fluorescence values to a 4-parameter logistic equation using the Electronic Notebook (ELN) software from IDBS.

The subject of data set [2] is H3K27me3 mark in MDA-MB-231 cells. The experiment in a line: High content analysis (HCA) of cellular H3K27me3 mark, washout format. The note with it: for IC50: H3K27 methylation HCA, read-out: Mean IC50. Format: cell-based. The method, then: In the low- and high-signal control wells, test compounds were replaced by 10 µM of EZH2 inhibitor (equal to unlabeled probe from ePCA and kPCA) or DMSO, respectively. […] After fixation, the cells were washed with PBS and incubated with 1% BSA blocking solution at RT for 1 h. Blocking solution was discarded, primary monoclonal antibody rabbit Tri-methyl-histone H3K27 (C36B11, Cell signaling) diluted 1:200 in blocking solution was added and incubated overnight at 4 °C. […] Afterwards, cells were washed three times with PBS and incubated at 4 °C until measuring. Fluorescence signals were captured by an Opera Phenix™ High Content Screening (HCA) system (Perkin Elmer) by 10× magnification. […] Microscopy images were initially visualized and preprocessed with MetaXpress High Content Image Acquisition & Analysis Software (Molecular Devices) as previously described. Raw data import, normalization, quality control and fitting curves for IC50 determination of tested compounds were done with Genedata Screener® for high-content screening. Wells with no recognizable signals were masked and the average intensity of the trimethylation signal was normalized to the DMSO control (0%).

Data set [3] addresses T1, PRC2/EZH2Y641N (Homo sapiens, UniProt Q15910, Y641N).
T1 construct: Synthetic cDNA encoding N-terminal 6His-tagged full length EZH2^Y641N; 6His (N); made in house; host or cells: Sf9 insect cells (baculovirus co-infection)
The experiment in a line: Kinetic probe competition assay (kPCA), TR-FRET. The data set is classed as binding. The note with it: calculated. The text has this:
(§1) Biotinylated PRC2 complexes and the fluorescent probe used in TR-FRET assays were generated as described in the supplementary methods section.

For data set [4], the target named is T2, PRC2/EZH2+/+ (Homo sapiens, UniProt Q15910).
T2 construct: purchased Active Motif
The experiment in a line: Equilibrium binding thermodynamics (van't Hoff analysis of ePCA/kPCA at 5-37 °C). The settings on record: ePCA at 5-37 °C, wild type EZH2. The procedure: For thermodynamic analysis of the binding to EZH2+/+ the probe characterization, equilibrium and kinetic probe competition assays described above (previously conducted at 25 °C) were performed at 5, 15, 30 and 37 °C. […] For measurements at 25, 30 and 37 °C, the temperature control functionality of the instrument was used.
Equilibrium and kinetic binding constants obtained at various temperatures were used to determine the thermodynamic parameters by van’t Hoff and Eyring analysis, as described elsewhere for SPR and radioligand binding experiments[46],[69]. For the van’t Hoff thermodynamic analysis, changes in entropy ΔS° and enthalpy ΔH° were estimated by linear regression using the van’t Hoff equation. lnKA=ΔS^∘/R-ΔH^∘/RT,
Changes in Gibb’s free energy ΔG° were calculated according to. ΔG^∘T=ΔH^∘-T×ΔS^∘
Additionally, the possible temperature dependence of the thermodynamic parameters was considered using the integrated form of the van’t Hoff equation[47] for nonlinear regression to yield the changes in entropy, enthalpy, and heat capacity ΔCp: ln KA=-ΔH^∘T^∘/RT+ΔS^∘T^∘/R+ΔCp/R[T-T^∘/T-lnT/T^∘],

The nature of data set [5]: in vitro. Format: in vitro ADME. The settings on record: 2 µM, 2 h, 37 °C, basolateral to apical. The procedure: Cells were kept at 37 °C in a humidified 5% CO2 atmosphere. Before the permeation assay was run, the culture medium was replaced by an FCS-free HEPES carbonate transport buffer (pH 7.2). For assessment of monolayer integrity, the transepithelial electrical resistance was measured. Test compounds were pre-dissolved in DMSO and added either to the apical or basolateral compartment at a final concentration of 2 µM. Before and after 2 h incubation at 37 °C, samples were taken from both compartments. Analysis of compound content was conducted after precipitation with methanol by LC/MS/MS analysis. Reference compounds were analyzed in parallel as assay control. Permeability (Papp) was calculated in the apical to basolateral (A → B) and basolateral to apical (B → A) directions. The efflux ratio basolateral (B) to apical (A) was calculated by dividing Papp B–A by Papp A–B.

Data set [6] addresses T2, PRC2/EZH2+/+. The experiment in a line: Kinetic probe competition assay (kPCA), TR-FRET. Format: binding. The procedure: as §1
For measurements at 25, 30 and 37 °C, the temperature control functionality of the instrument was used.
TR-FRET kPCA traces were exported via Microsoft Excel to GraphPad Prism, where non-specific signals were subtracted and kinetic association competition traces were fitted to the Motulsky–Mahan model “kinetics of competitive binding” to obtain kon (k3), koff (k4) and KD parameters.

Data set [7] addresses T3, PRC2/EZH1 (Homo sapiens, UniProt Q92800).
T3 construct: N-terminal 6His-tagged full length EZH2^Y641N, EZH2^Y111L, EZH2^Y111D, EZH2^Y641N, Y661DEZH2, EZH1; 6His (N); made in house; host or cells: Sf9 insect cells (baculovirus co-infection)
The experiment in a line: Scintillation proximity assay (SPA) of H3K27 methylation. Format: biochemical. The method, then: Assay-ready plates containing 50 nl of compound dilutions and DMSO controls were filled with 2.5 µL enzyme solution and pre-incubated for 15 min. […] Experiments were also performed without pre-incubation of enzyme and compounds. In this case, the substrate solution was added before enzyme. The reaction was stopped using 1.6 µg/µl streptavidin beads (Perkin Elmer) and 700 µM of SAM (Perkin Elmer). The plates were sealed with transparent foil.
For equilibrium binding competition (ePCA) and SPA enzyme inhibition assays, raw data import, quality control, normalization, and curve fitting to a 4-parameter logistic equation for IC50 determination were performed using the Genedata Screener® software (Genedata AG). ePCA Ki values were either calculated using the Cheng-Prussof equation[68] or with the GraphPad Prism model “One-site—Fit Ki”.

As to `CC[C@H](C)n1cc(C)c2c(C(=O)NCc3c(C)cc(C)[nH]c3=O)cc(-c3ccc(N4CCNCC4)nc3)cc21` [Compound 4, GSK126], the IC50 in data set [1] is 280 nM; in data set [2] (incubation time 0.5 h, washout time 71.5 h), 5800 nM; in data set [2] (incubation time 1 h, washout time 71 h), 2900 nM; in data set [2] (incubation time 2 h, washout time 70 h), 2400 nM; in data set [2] (incubation time 4 h, washout time 68 h), 1800 nM; in data set [2] (incubation time 24 h, washout time 48 h), 1400 nM. In addition, the IC50 in data set [2] (incubation time 48 h, washout time 24 h) came out at 700 nM; in data set [2] (incubation time 72 h, washout time 0 h), 310 nM; in data set [7] (0' enzyme:inhibitor pre-incubation, read-out: SPA Mean IC50 (M) - 0' enzyme:inhibitor pre-incubation EZH1), 1.1e-06 M; in data set [7] (15' enzyme:inhibitor pre-incubation, read-out: SPA Mean IC50 (M) - 15' enzyme:inhibitor pre-incubation EZH1), 4.4e-07 M; in data set [7] (60' enzyme:inhibitor pre-incubation, read-out: SPA Mean IC50 (M) - 60' enzyme:inhibitor pre-incubation EZH1), 1e-06 M. The “AUC (a.u.)” value in data set [2] (HCA H3K27 methylation washout pIC50 AUC over all incubation/washout times) came to 81.2 a.u. In addition, the “Calculated RT” value in data set [3] (EZH2Y641N (+ H3K27me3)) was 0.22 h; in data set [3] (EZH2Y641N (- H3K27me3)), 0.0666 h; in data set [6] (EZH2+/+ (+ H3K27me3)) it was 0.44 h; in data set [6] (EZH2+/+ (- H3K27me3)), 0.06 h. Besides, in data set [4], the “binding driving force, polynomial van't Hoff analysis” value is reported as “entropy-driven”. The “PK Caco-2 Flux Papp B-A (mean)” value in data set [5] is 9.838 ×10⁻⁶ cm/s. The “RT (Calculated)” value in data set [6] (EZH2+/+ (- H3K27me3), 15 °C) was 0.0145 h; in data set [6] (EZH2+/+ (- H3K27me3), 30 °C), 0.031 h; in data set [6] (EZH2+/+ (- H3K27me3), 37 °C), 0.0092 h.
